{"source": "patent US10023552B2", "about": "“Method of preparing a liquiritigenin precursor” (priority 2014, dated 2018)", "key": {"[1]": {"test_system": "human poorly differentiated gastric cancer line BGC-823", "details": "cited from earlier work"}, "[2]": {"test_system": "human liver cancer cells SMMC7721", "details": "cited from earlier work"}, "[3]": {"test_system": "human leukemia cells HL-60", "details": "cited from earlier work"}, "[4]": {"test_system": "human lung cancer cells A549", "details": "cited from earlier work"}, "[5]": {"assay": "Acute toxicity test (Japan Food Analysis Center)", "assay_type": "in vivo", "details": "tested in Japan Food Analysis Center", "description": "The desired product iso-liquiritigenin were tested for acute toxicity in Japan Food Analysis Center and it was confirmed that there is no toxicity."}}, "note": "Where two headings read alike, the source gives them in different places.", "data": [{"compound": "O=C1C[C@@H](c2ccc(O)cc2)Oc2cc(O)ccc21", "note": "[Liquiritigenin, liquiritigenin]", "values": [{"measurement": "BGC-823 Inhibition %", "setting": "[1]; Conc. 1 μg/ml", "value": 24.41, "unit": "%"}, {"measurement": "BGC-823 Inhibition %", "setting": "[1]; Conc. 10 μg/ml", "value": 73.76, "unit": "%"}, {"measurement": "BGC-823 Inhibition %", "setting": "[1]; Conc. 100 μg/ml", "value": 97.52, "unit": "%"}, {"measurement": "SMMC7721 Inhibition %", "setting": "[2]; Conc. 1 μg/ml", "value": 23.17, "unit": "%"}, {"measurement": "SMMC7721 Inhibition %", "setting": "[2]; Conc. 10 μg/ml", "value": 96.08, "unit": "%"}, {"measurement": "SMMC7721 Inhibition %", "setting": "[2]; Conc. 100 μg/ml", "value": 98.00, "unit": "%"}, {"measurement": "HL-60 Inhibition %", "setting": "[3]; Conc. 1 μg/ml", "value": 50.95, "unit": "%"}, {"measurement": "HL-60 Inhibition %", "setting": "[3]; Conc. 10 μg/ml", "value": 64.40, "unit": "%"}, {"measurement": "HL-60 Inhibition %", "setting": "[3]; Conc. 100 μg/ml", "value": 99.30, "unit": "%"}, {"measurement": "A549 Inhibition %", "setting": "[4]; Conc. 1 μg/ml", "value": 7.76, "unit": "%"}, {"measurement": "A549 Inhibition %", "setting": "[4]; Conc. 10 μg/ml", "value": 35.66, "unit": "%"}, {"measurement": "A549 Inhibition %", "setting": "[4]; Conc. 10 μg/ml, listed as Liquiritigenin (−)", "value": 35.06, "unit": "%"}, {"measurement": "A549 Inhibition %", "setting": "[4]; Conc. 100 μg/ml", "value": 93.03, "unit": "%"}]}, {"compound": "O=C(/C=C/c1ccc(O)cc1)c1ccc(O)cc1O", "note": "[iso-liquiritigenin]", "values": [{"measurement": "acute toxicity", "setting": "[5]", "value": "no toxicity"}]}, {"compound": "COc1cccc2c1C(=O)c1c(O)c3c(c(O)c1C2=O)C[C@@](O)(C(=O)CO)C[C@@H]3O[C@H]1C[C@H](N)[C@H](O)[C@H](C)O1", "note": "[adriamycin, reference compound]", "values": [{"measurement": "BGC-823 Inhibition %", "setting": "[1]; Conc. 1 × 10^−5 Mol/l", "value": 97.67, "unit": "%"}, {"measurement": "BGC-823 Inhibition %", "setting": "[1]; Conc. 1 × 10^−6 Mol/l", "value": 45.80, "unit": "%"}, {"measurement": "BGC-823 Inhibition %", "setting": "[1]; Conc. 1 × 10^−7 Mol/l", "value": 17.86, "unit": "%"}, {"measurement": "SMMC7721 Inhibition %", "setting": "[2]; Conc. 1 × 10^−5 Mol/l", "value": 97.47, "unit": "%"}, {"measurement": "SMMC7721 Inhibition %", "setting": "[2]; Conc. 1 × 10^−6 Mol/l", "value": 58.40, "unit": "%"}, {"measurement": "SMMC7721 Inhibition %", "setting": "[2]; Conc. 1 × 10^−7 Mol/l", "value": 10.28, "unit": "%"}, {"measurement": "HL-60 Inhibition %", "setting": "[3]; Conc. 1 × 10^−5 Mol/l", "value": 99.09, "unit": "%"}, {"measurement": "A549 Inhibition %", "setting": "[4]; Conc. 1 × 10^−5 Mol/l", "value": 90.44, "unit": "%"}, {"measurement": "A549 Inhibition %", "setting": "[4]; Conc. 1 × 10^−6 Mol/l", "value": 16.42, "unit": "%"}, {"measurement": "A549 Inhibition %", "setting": "[4]; Conc. 1 × 10^−7 Mol/l", "value": 16.42, "unit": "%"}]}]}
